Key:
[1] = test system: brain phospholipids; assay: Brain phospholipid levels in pups of treated pregnant and nursing mothers; assay type: in vivo; details: rat pups
Procedure: In another study, pregnant rats were allowed to consume ad libitum, for 10 days before parturition and 20 days while nursing, either a choline-containing control diet or this diet supplemented with uridine as UMP; half of each group also received DHA or its diluent daily, by gavage. Pups were then sacrificed and brain slices were examined to determine numbers of hippocampal dendritic spines.
Pregnant and nursing rats were administered DHA and/or uridine as described in Example 9. At 20 days post-birth, rats were sacrificed and brain samples were obtained and assayed for phospholipids. Administration of DHA alone increased brain PC, PI, PE, and sphingomyelin (SM) per cell (DNA) by 36, 166, 38, and 78%, respectively. UMP markedly amplified the effects of DHA to 66, 210, 68, and 99% of control, respectively (Table 8). These increases were greater than those observed in adult animals. Similar results were obtained when normalizing to protein (Table 9). Thus, administration of DHA and/or uridine to pregnant and nursing mothers is able to increase phospholipid levels in the offspring.

[2] = test system: PC-12 cells; assay: 14C-choline incorporation into phospholipids in PC-12 cells; assay type: cell-based
Procedure: PC-12 cells were maintained in Dulbecco's modified Eagle's medium (DMEM)+10% fetal bovine serum (FBS). For experiments, cells were grown in quintuplicate collagen-coated 35 millimeter (mm) dishes. Cells were incubated for 18 hours (hr) in serum-free DMEM containing 28 μM choline+/−5 micromolar (μM) of DHA, oleic acid, or palmitic acid. Cells were then labeled for 2.5 hr with 0.5 microcurie (μCi)/ml ^14C-choline in serum-free DMEM containing 10-micromolar (μM) choline.
Cells were homogenized in 100 volumes of ice-cold deionized water using a tissue degrader (Polytron PT 10-35, Kinematica AG, Switzerland); 1 ml of aliquots were then mixed with 3 ml of chloroform+methanol mixture (2:1 v/v) and vortexed vigorously for 30 seconds. After cooling for 1 h on ice, the mixture was mixed sequentially with 3 ml of chloroform+methanol mixture (2:1 v/v) and 1 ml of ice-cold deionized water. […] Total phosphorus was determined by comparison with standard curves by using KH2PO4 run with each assay. […] Absorbance was measured spectrophotometrically at 820 nm. Phospholipid mass was determined by multiplying the phosphorus content by 25.
To further characterize the stimulation of phospholipid synthesis by omega-3 fatty acids, PC-12 cells were pre-treated with different doses of DHA and exposed to labeled choline as described in Example 1, then incorporation of ^14C-label into phospholipids was measured. […]

[3] = postnatal day 20, normalized to DNA
[4] = postnatal day 20, normalized to protein

SMILES: CCC=CCC=CCC=CCC=CCC=CCC=CCCC(=O)O [DHA, 4,7,10,13,16,19-docosahexaenoic acid]
- PC, percent increase over control [1, 3]: 36%
- PE, percent increase over control [1, 3]: 38%
- PI, percent increase over control [1, 3]: 166%
- SM, percent increase over control [1, 3]: 78%
- Total Phospholipids, percent increase over control [1, 3]: 30%
- PC, percent increase over control [1, 4]: 23%
- PE, percent increase over control [1, 4]: 24%
- PI, percent increase over control [1, 4]: 141%
- SM, percent increase over control [1, 4]: 59%
- Total Phospholipids, percent increase over control [1, 4]: 16%
- Phosphatidylcholine (PC) synthesis (incorporation of 14C label into PC) ([2]; 18 h pre-incubation with 5 μM fatty acid, FIG. 1): significantly increased
- synthesis of phospholipids (incorporation of 14C-label) ([2]; different doses of DHA, dose-dependent, FIG. 2): increased synthesis of phospholipids

From patent publication US20160235778A1, “COMPOSITIONS CONTAINING PUFA, URIDINE AND CHOLINE AND METHODS OF USE THEREOF” (MASSACHUSETTS INSTITUTE OF TECHNOLOGY, priority 2014, published 2016)
